The results in this text go back to PubChem BioAssay AID248 (DTP/NCI, 2004).

This test deals with L1210 leukemia ip in BDF1 mice, survival T/C. As to the kind of experiment: NCI In Vivo Anticancer Drug Screen. Data for tumor model L1210 Leukemia (intraperitoneal) in B6D2F1 (BDF1) mice. The settings on record: endpoint: mean survival time, higher = longer survival. In outline: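 Transplantable tumor model; survival measured in treated vs vehicle control mice. Value = treated/control.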

Where [1] appears, read: dose: 100.0 mg/kg/injection, schedule: Q04DX003 (ip), vehicle: saline.
Setting [2] is: dose: 200.0 mg/kg/injection, schedule: Q04DX003 (ip), vehicle: saline.
Setting [3] is: dose: 400.0 mg/kg/injection, schedule: Q04DX003 (ip), vehicle: saline.
The mark [4] stands for this setting: dose: 100.0 mg/kg/injection, schedule: Q04DX003 (ip), vehicle: Klucel (hydroxypropylcellulose) (HPC).
Where [5] appears, read: dose: 200.0 mg/kg/injection, schedule: Q04DX003 (ip), vehicle: Klucel (hydroxypropylcellulose) (HPC).
Setting [6] is: dose: 400.0 mg/kg/injection, schedule: Q04DX003 (ip), vehicle: Klucel (hydroxypropylcellulose) (HPC).
The mark [7] stands for this setting: dose: 100.0 mg/kg/injection, schedule: Q01DX009 (ip), vehicle: Klucel (hydroxypropylcellulose) (HPC).
Setting [8] is: dose: 200.0 mg/kg/injection, schedule: Q01DX009 (ip), vehicle: Klucel (hydroxypropylcellulose) (HPC).
The mark [9] stands for this setting: dose: 400.0 mg/kg/injection, schedule: Q01DX009 (ip), vehicle: Klucel (hydroxypropylcellulose) (HPC).

Values joined by “and” are separate entries in the source; they are usually repeats but may differ in a detail not shown here. Equal values may be shown once. Inconclusive results and toxic doses are left out.

Take `[Cl][Pt+2]([Cl])([Cl])[Cl].c1ccc(C2CC[N-]CC2)cc1.c1ccc(C2CC[N-]CC2)cc1`: the T/C reads like this: (dose: 50.0 mg/kg/injection, schedule: Q01DX009 (ip), vehicle: water) 101 % of control; (dose: 100.0 mg/kg/injection, schedule: Q01DX009 (ip), vehicle: water) 102 % of control; (dose: 100.0 mg/kg/injection, schedule: Q04DX003 (ip), vehicle: water) 105 % of control; (dose: 200.0 mg/kg/injection, schedule: Q04DX003 (ip), vehicle: water) 103 % of control.

On to `CC(CCC(C)OS(C)(=O)=O)OS(C)(=O)=O` (configuration not stated), for which the T/C is 86 % of control and 87 % of control (dose: 2.0 mg/kg/injection, schedule: Q01DX010 (ip), vehicle: saline); 96 % of control (dose: 3.1 mg/kg/injection, schedule: Q01DX009 (ip), vehicle: Klucel (hydroxypropylcellulose) (HPC)); 97 % of control (dose: 4.0 mg/kg/injection, schedule: Q01DX009 (ip), vehicle: saline); 100 % of control (dose: 4.0 mg/kg/injection, schedule: Q01DX010 (ip), vehicle: saline); 102 % of control and 103 % of control and 101 % of control (dose: 6.25 mg/kg/injection, schedule: Q01DX009 (ip), vehicle: Klucel (hydroxypropylcellulose) (HPC)); 96 % of control (dose: 6.25 mg/kg/injection, schedule: Q04DX002 (ip), vehicle: Klucel (hydroxypropylcellulose) (HPC)). The T/C runs as follows: (dose: 8.0 mg/kg/injection, schedule: Q01DX009 (ip), vehicle: saline) 101 % of control; (dose: 8.0 mg/kg/injection, schedule: Q01DX010 (ip), vehicle: saline) 89 % of control and 90 % of control; (dose: 12.5 mg/kg/injection, schedule: Q01DX009 (ip), vehicle: Klucel (hydroxypropylcellulose) (HPC)) 105 % of control [middle of 4 runs]; (dose: 12.5 mg/kg/injection, schedule: Q04DX002 (ip), vehicle: Klucel (hydroxypropylcellulose) (HPC)) 96 % of control and 100 % of control; (dose: 16.0 mg/kg/injection, schedule: Q01DX009 (ip), vehicle: saline) 108 % of control; (dose: 16.0 mg/kg/injection, schedule: Q01DX010 (ip), vehicle: saline) 106 % of control and 114 % of control. For the same compound, the T/C was 102 % of control and 88 % of control and 108 % of control (dose: 25.0 mg/kg/injection, schedule: Q01DX009 (ip), vehicle: Klucel (hydroxypropylcellulose) (HPC)); 96 % of control and 93 % of control and 94 % of control (dose: 25.0 mg/kg/injection, schedule: Q04DX002 (ip), vehicle: Klucel (hydroxypropylcellulose) (HPC)); 103 % of control (dose: 32.0 mg/kg/injection, schedule: Q01DX009 (ip), vehicle: saline); 87 % of control (dose: 50.0 mg/kg/injection, schedule: Q01DX009 (ip), vehicle: Klucel (hydroxypropylcellulose) (HPC)); 91 % of control and 93 % of control (dose: 50.0 mg/kg/injection, schedule: Q01DX009 (ip), vehicle: saline with Tween-80); 107 % of control (dose: 50.0 mg/kg/injection, schedule: Q04DX002 (ip), vehicle: Klucel (hydroxypropylcellulose) (HPC)). Also, the T/C is, setting by setting: (dose: 100.0 mg/kg/injection, schedule: Q01DX009 (ip), vehicle: saline with Tween-80) 98 % of control and 97 % of control; (dose: 200.0 mg/kg/injection, schedule: Q01DX009 (ip), vehicle: saline with Tween-80) 91 % of control and 87 % of control.

As for `CC(=O)ON(C(C)=O)c1ccc(S(=O)(=O)c2ccc(N(OC(C)=O)C(C)=O)cc2)cc1`, the T/C was 97 % of control under setting [1], 103 % of control under setting [2] and 103 % of control under setting [3].

Turning to `C(=N\N1CCN(/N=C/c2ccccc2)C1c1ccccc1)/c1ccccc1`, the T/C under setting [4] was 106 % of control, the T/C under setting [5] is 94 % of control and the T/C under setting [6] was 101 % of control.

For `CCCCCCCCCCCCCCCCCC(=O)OC1C(CO)OC2C1Oc1nc(=N)ccn12` (configuration not stated), the T/C reads like this: (dose: 12.5 mg/kg/injection, schedule: Q01DX009 (ip), vehicle: other) 165 % of control; (dose: 25.0 mg/kg/injection, schedule: Q01DX009 (ip), vehicle: other) 190 % of control; (dose: 50.0 mg/kg/injection, schedule: Q01DX009 (ip), vehicle: other) 235 % of control; (dose: 100.0 mg/kg/injection, schedule: Q01DX009 (ip), vehicle: other) 283 % of control; (dose: 200.0 mg/kg/injection, schedule: Q01DX009 (ip), vehicle: other) 120 % of control.

Consider `Cc1ccc(-c2c(O)c(Br)c(-c3ccc(C)cc3C)c(O)c2Br)c(C)c1`, for which the T/C by setting is: (dose: 100.0 mg/kg/injection, schedule: Q04DX003 (ip), vehicle: saline with Tween-80) 98 % of control; (dose: 200.0 mg/kg/injection, schedule: Q04DX003 (ip), vehicle: saline with Tween-80) 93 % of control; (dose: 400.0 mg/kg/injection, schedule: Q04DX003 (ip), vehicle: saline with Tween-80) 93 % of control.

Turning to `O=[N+]([O-])c1ccccc1S(=O)(=O)N1CCN(S(=O)(=O)c2ccccc2[N+](=O)[O-])C1`, the T/C under setting [7] is 90 % of control; the T/C under setting [4] is 96 % of control; the T/C under setting [8] is 93 % of control; the T/C under setting [5] was 96 % of control; the T/C under setting [9] is 93 % of control; the T/C under setting [6] is 100 % of control.

On to `S=C(NCc1ccncc1)Nc1ccccc1Cl`, for which the T/C reads like this: under setting [7], 101 % of control; under setting [8], 95 % of control; under setting [9], 98 % of control.

As for `COC(=N)c1ccc(C)c(I)c1`, the T/C (dose: 100.0 mg/kg/injection, schedule: Q04DX002 (ip), vehicle: Klucel (hydroxypropylcellulose) (HPC)) was 91 % of control; the T/C (dose: 200.0 mg/kg/injection, schedule: Q04DX002 (ip), vehicle: Klucel (hydroxypropylcellulose) (HPC)) was 98 % of control; the T/C (dose: 400.0 mg/kg/injection, schedule: Q04DX002 (ip), vehicle: Klucel (hydroxypropylcellulose) (HPC)) was 94 % of control.

For the compound `O=C(c1ccccc1)C1C(C(=O)c2ccccc2)N1Cc1ccccc1` (configuration not stated), the T/C is 100 % of control under setting [7]; 96 % of control and 93 % of control under setting [4]; 101 % of control under setting [8]; 96 % of control and 91 % of control under setting [5]; 97 % of control under setting [9]; 93 % of control and 100 % of control under setting [6].

Take `CN(C)CCNC(=O)N(C)C`: the T/C (dose: 100.0 mg/kg/injection, schedule: Q01DX009 (ip), vehicle: saline) was 95 % of control; the T/C under setting [1] is 92 % of control; the T/C (dose: 200.0 mg/kg/injection, schedule: Q01DX009 (ip), vehicle: saline) was 98 % of control; the T/C under setting [2] was 100 % of control; the T/C (dose: 400.0 mg/kg/injection, schedule: Q01DX009 (ip), vehicle: saline) was 102 % of control; the T/C under setting [3] is 97 % of control.
